Assay results taken from article PMC2579677 (British Journal of Cancer, 2008).
Values joined by “and” are separate entries in the source; they are usually repeats but may differ in a detail not shown here. Equal entries are not always repeated. Where two headings read alike, the source gives them in different places.

Experiments:
[1] = tested on: bFGF-stimulated angiogenesis in Matrigel plugs; test: In vivo angiogenesis assay (bFGF-supplemented Matrigel plug, FITC-dextran); parameters: species or system C57BL/6J mice; conditions: for reduction of level of angiogenesis: 10 mg kg^−1 orally daily for four days, compared with bFGF-only
Method: The antiangiogenic potential of STX243 was assessed using a modified Matrigel plug assay as described earlier ([Passaniti et al, 1992]; [Prewett et al, 1999]; [Chander et al, 2007]). The female C57BL/6J mice used in this study were obtained from Harlan (Bicester). The mice were anaesthetised, placed on a heated pad (37°C) and 0.5 ml of ice-cold Matrigel supplemented with 500 ng of basic fibroblast growth factor (bFGF) was injected subcutaneously into the flanks of each mouse. Control mice received Matrigel without bFGF. The mice were subsequently weighed before returning the mice to their isolator. After 24 h of Matrigel injection, the mice were placed into the following treatment groups: control, bFGF-only, bFGF plus STX140 (10 mg kg^−1, orally) and bFGF plus STX243 (10, 20 or 40 mg kg^−1, orally). Control and bFGF-only animals were dosed orally with vehicle (10% THF, 90% PG). The animals were dosed every day for four days with five animals per treatment group. Quantification of the blood vessels within the Matrigel plugs was facilitated through the intravenous injection of 100 μl of 0.25 mg ml^−1 FITC-dextran (250 000 molecular weight) seven days after the Matrigel injection. FITC-dextran injection allows for visualisation of the blood vessels that has been recently formed in the matrigel plugs. The animals were killed 20 min after the injection of the FITC-dextran. The mice were subsequently weighed and the Matrigel plugs were removed. The Matrigel plugs were photographed and subsequently dissolved in 1 ml Dispase reagent for 16 h at 37°C. The resulting mixture was centrifuged at 15 700 g (20°C) for 30 s. The fluorescence of the supernatant was measured using a FLUOstar OPTIMA fluorimeter (BMG Labtech Ltd., Aylesbury, Bucks, UK). The excitation and emission wavelengths used were 480 and 520 nm, respectively. The fluorescence of the samples was quantitated using a standard curve of FITC-dextran (0.4–25 μg ml^−1).

[2] = tested on: MCF-7dox40 xenograft tumours; parameters: method as in Newman et al, 2008; conditions: ref Newman et al, 2008; cited from earlier work
[3] = parameters: method as in Foster et al, 2008; conditions: single oral administration; ref Foster et al, 2008; cited from earlier work
[4] = tested on: human umbilical vein endothelial cell (HUVEC); parameters: method as in Newman et al, 2004; conditions: ref Newman et al, 2004; cited from earlier work
range of cell lines = conditions: 2003, 2005, cited from earlier work; for difference in antiproliferative activity relative to 2-MeOE2: some investigations, ref Day et al, Wood et al, 2004, Leese et al
[5] = cited from earlier work
[6] = tested on: MDA-MB-231 xenograft tumours; test: MDA-MB-231 xenograft tumour growth inhibition; conditions: 21 days
HUVECs = test: In vitro angiogenesis kit: VEGF-stimulated vessel formation in HUVEC/fibroblast coculture; assay type: cell-based, human; conditions: VEGF 2 ng ml^−1 stimulated, day 11
Method: The effects of the compounds on in vitro vessel formation were assessed using an angiogenesis kit (TCS Cellworks, Claydon, UK). For this assay, HUVECs (obtained from TCS Cellworks) were cultured in a 24-well plate within a matrix of human diploid fibroblasts of dermal origin in an optimised medium (TCS Cellworks) supplemented with 2 ng ml^−1 vascular endothelial growth factor (VEGF). The cocultured cells were incubated throughout the experiment at 37°C under 5% CO2 in a humidified incubator. On day 1, the culture medium was removed and replaced with medium containing the compounds under investigation. The vehicle used for the dilution of compound was tetrahydrofuran (THF). The final concentration of THF in the medium was 0.001 (100 nM dose) to 0.00025% (25 nM dose). On days 4, 7 and 9, the medium was replaced with fresh medium containing the compounds. Each compound was tested in triplicate. On day 11, the cells were washed (phosphate-buffered saline) and 70% ethanol (1 ml) was added to each well for 30 min to fix the cells. After fixation, the cells were washed with blocking buffer (1 ml, phosphate-buffered saline+1% bovine serum albumin) and stained for CD31 according to the manufacturer's instructions (TCS Cellworks).
The extent of vessel formation was then quantified using a variation of an earlier described technique ([Newman et al, 2004]). Briefly, using a high-resolution transmissive scanner (ScanMaker 9800, Microtek, Willich, Germany), each well was scanned and saved as a tagged image format (TIF) file in Photoshop (Adobe, San Jose, CA, USA). The image was then converted to a black and white image using the photocopy filter in Photoshop ( × 2, 10 detail and 25 darkness) and saved as an uncompressed TIF file. The files were transferred to the AngioSys software (TCS Cellworks), all background and non-tubule-like structures were removed using erode ( × 1) and clean (100 pixels) functions, and the number of pixels representing vessels was counted. This technique was validated (data not shown) against the quantification techniques as described earlier ([Newman et al, 2004]).

[7] = tested on: MCF-7wt xenograft tumours; test: MCF-7wt xenograft tumour growth inhibition; assay type: in vivo, MF-1 nu/nu mice; conditions: 28 days, compared with vehicle-only
[8] = tested on: MCF-7dox40 xenograft tumours; test: Paclitaxel-resistant MCF-7dox40 xenograft tumour growth inhibition; assay type: in vivo, MF-1 nu/nu mice; conditions: 28 days
[9] = Pharmacokinetics of STX243 in plasma (HPLC); assay type: in vivo, female Wistar rats; conditions: for clearance / MRT / Vd / half-life / Cmax: female, Wistar; for clearance / MRT / Vd / half-life: rat, plasma; for clearance: read-out: Cl (total body clearance) (converted); for MRT: read-out: MRT (mean residence time); for Vd: read-out: VD (volume of distribution); for half-life: read-out: t1/2β (elimination half-life) (converted)
[10] = tested on: bFGF-stimulated angiogenesis in Matrigel plugs; parameters: method as in Chander et al, 2007; conditions: ref Chander et al, 2007, cited from earlier work
[11] = 40 mg kg^−1 orally daily, compared with vehicle-only

**Q.** For COc1cc2c(cc1OS(N)(=O)=O)CCC1C2CC[C@@]2(C)C1CC[C@@H]2OS(N)(=O)=O (stereo partly drawn) [STX140, 2-MeOE2-3,17-O,O-bis-sulphamate], which “reduction of level of angiogenesis” value [1] is on record?
**A.** 72% and 72±5%

**Q.** What about the “inhibition of growth of MCF-7dox40 tumours” value [2] of the same compound?
**A.** capable of inhibiting the growth of MCF-7dox40 tumours

**Q.** And the maximum-tolerated dose [3]?
**A.** 150 mg/kg

**Q.** What about the “effectiveness at inhibiting HUVEC proliferation relative to 2-MeOE2” value [4] of the same compound?
**A.** 60 fold

**Q.** What about the “difference in antiproliferative activity relative to 2-MeOE2” value (range of cell lines) of the same compound?
**A.** 10 fold

**Q.** What about the “maximum concentration in plasma” value ([5]; rat, in vivo, iv) of the same compound?
**A.** 6.6 µg/mL

**Q.** What about the oral bioavailability ([5]; rat, in vivo, po, 10 mg/kg) of the same compound?
**A.** 85%

**Q.** What about the “maximum concentration in plasma” value ([5]; rat, in vivo, po) of the same compound?
**A.** 3.9 µg/mL

**Q.** And the “time of peak plasma concentration” value ([5]; rat, in vivo, po)?
**A.** 3 h

**Q.** And the tumour growth inhibition ([6]; 20 mg kg^−1 orally daily, compared with vehicle-only)?
**A.** 63% and 63±7%

**Q.** For CCc1cc2c(cc1OS(N)(=O)=O)CCC1C2CC[C@@]2(C)C1CC[C@@H]2OS(N)(=O)=O (stereo partly drawn) [STX243, 2-ethyloestradiol-3,17-O,O-bis-sulphamate], which vessel formation (HUVECs; 25 nM) is on record?
**A.** only a small inhibition

**Q.** And the vessel formation (HUVECs; 50 nM)?
**A.** significant inhibition of vessel formation

**Q.** And the “vessel (tubule) formation” value (HUVECs; 100 nM)?
**A.** completely blocked all tubule formation

**Q.** What about the tumour growth inhibition ([7]; 40 mg kg^−1 orally daily) of the same compound?
**A.** 87±5%

**Q.** And the tumour growth inhibition [8, 11]?
**A.** 74±4%

**Q.** What about the “reduction of level of angiogenesis” value [1] of the same compound?
**A.** 50% and 50±6%

**Q.** And the “growth of new blood vessels in Matrigel plugs” value ([1]; all doses investigated (10, 20 or 40 mg kg^−1 orally), P<0.001 vs bFGF-only)?
**A.** significantly inhibited

**Q.** And the AUC ([9]; Intravenous 10 mg kg^−1)?
**A.** 42 hμg ml^−1

**Q.** What about the AUMC ([9]; Intravenous 10 mg kg^−1) of the same compound?
**A.** 267 h^2μg ml^−1

**Q.** And the AUC ([9]; Intravenous 40 mg kg^−1)?
**A.** 126 hμg ml^−1

**Q.** And the AUMC ([9]; Intravenous 40 mg kg^−1)?
**A.** 558 h^2μg ml^−1

**Q.** What about the AUC ([9]; Oral 10 mg kg^−1) of the same compound?
**A.** 13 hμg ml^−1

**Q.** And the AUMC ([9]; Oral 10 mg kg^−1)?
**A.** 219 h^2μg ml^−1

**Q.** And the “Bioavailability (% F)” value ([9]; Oral 10 mg kg^−1)?
**A.** 31 % F and 30.7 % F

**Q.** And the “time of highest plasma concentration” value ([9]; Oral 10 mg kg^−1)?
**A.** 4 h

**Q.** What about the AUC ([9]; Oral 40 mg kg^−1) of the same compound?
**A.** 23 hμg ml^−1

**Q.** What about the AUMC ([9]; Oral 40 mg kg^−1) of the same compound?
**A.** 157 h^2μg ml^−1

**Q.** And the “Bioavailability (% F)” value ([9]; Oral 40 mg kg^−1)?
**A.** 18 % F

**Q.** And the “time of highest plasma concentration” value ([9]; Oral 40 mg kg^−1)?
**A.** 8 h

**Q.** What about the clearance ([9]; Intravenous 10 mg kg^−1) of the same compound?
**A.** 3.92 mL/min/kg

**Q.** And the MRT ([9]; Intravenous 10 mg kg^−1)?
**A.** 6.28 h

**Q.** And the Vd ([9]; Intravenous 10 mg kg^−1)?
**A.** 1.48 L/kg

**Q.** What about the half-life ([9]; Intravenous 10 mg kg^−1) of the same compound?
**A.** 4.78 h

**Q.** What about the clearance ([9]; Intravenous 40 mg kg^−1) of the same compound?
**A.** 5.3 mL/min/kg

**Q.** And the MRT ([9]; Intravenous 40 mg kg^−1)?
**A.** 4.44 h

**Q.** And the Vd ([9]; Intravenous 40 mg kg^−1)?
**A.** 1.41 L/kg

**Q.** And the half-life ([9]; Intravenous 40 mg kg^−1)?
**A.** 3.18 h

**Q.** And the MRT ([9]; Oral 10 mg kg^−1)?
**A.** 16.8 h

**Q.** What about the half-life ([9]; Oral 10 mg kg^−1) of the same compound?
**A.** 11.4 h

**Q.** What about the MRT ([9]; Oral 40 mg kg^−1) of the same compound?
**A.** 6.93 h

**Q.** What about the half-life ([9]; Oral 40 mg kg^−1) of the same compound?
**A.** 1.88 h

**Q.** And the Cmax ([9]; Intravenous 10 mg kg^−1, rat plasma)?
**A.** 13100 ng/mL

**Q.** And the Cmax ([9]; Intravenous 40 mg kg^−1, rat plasma)?
**A.** 44800 ng/mL

**Q.** What about the Cmax ([9]; Oral 10 mg kg^−1, rat plasma) of the same compound?
**A.** 640 ng/mL

**Q.** And the Cmax ([9]; Oral 40 mg kg^−1, rat plasma)?
**A.** 1760 ng/mL

**Q.** And the “metabolism (to putative metabolite STX1813) in plasma” value ([9]; intravenous or oral, 10 or 40 mg kg^−1, HPLC)?
**A.** no significant metabolism

**Q.** What about the maximum-tolerated dose [3] of the same compound?
**A.** 300 mg/kg

**Q.** And the “potency at inhibiting cell proliferation relative to STX140” value (range of cell lines; range of cell lines, ref Suzuki et al, Raobaikady et al)?
**A.** equipotent to STX140

**Q.** And the “difference in antiproliferative activity relative to 2-MeOE2” value (range of cell lines)?
**A.** 10 fold

**Q.** And the tumour growth inhibition [6, 11]?
**A.** 72% and 72±13%

**Q.** With CC(=O)O[C@H]1C(=O)[C@@]2(C)[C@H]([C@H](OC(=O)c3ccccc3)[C@]3(O)C[C@H](OC(=O)[C@H](O)[C@@H](NC(=O)c4ccccc4)c4ccccc4)C(C)=C1C3(C)C)[C@]1(OC(C)=O)CO[C@@H]1C[C@@H]2O [paclitaxel, reference compound] as the compound, how does the tumour growth inhibition ([7]; 15 mg kg^−1 intravenous weekly) read?
**A.** 87±6%

**Q.** And the tumour growth inhibition ([8]; 15 mg kg^−1 intravenous weekly)?
**A.** only STX243 was capable of significantly inhibiting the growth

**Q.** Which results are given for COc1cc2c(cc1O)CC[C@@H]1[C@@H]2CC[C@]2(C)[C@@H](O)CC[C@@H]12 [2-MeOE2, 2-methoxyoestradiol, reference compound]?
**A.** angiogenesis inhibition in Matrigel plugs ([10]; 10 mg kg^−1 dose): no significant inhibition; angiogenesis inhibition in Matrigel plugs ([10]; 50 mg kg^−1 orally): Angiogenesis inhibition was only observed; plasma concentration 1 h after intravenous dosing ([5]; 10 mg kg^−1 intravenous, HPLC, ref Ireson et al, 2004): below the LOD; tumour growth inhibition [6, 11]: No significant tumour inhibition; tumour growth inhibition ([6]; 75 mg kg^−1 orally daily): No significant tumour inhibition
